This note sets out measurements from PubChem BioAssay (NCI).

Among the test systems are U251 CNS; HL-60(TB) leukemia; UACC-257 melanoma; NCI-H23 lung; UO-31 renal; K-562 leukemia; SK-MEL-2 melanoma; CAKI-1 renal; IGROV1 ovarian; MDA-MB-435.
Common to all, as to experiment: NCI tumour cell line growth inhibition, 48 h

Each structure is given as a SMILES string.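 Briefly, cells in 96-well plates were exposed to five compound concentrations for 48 h, and endpoints were estimated by linear interpolation. GI50: concentration for 50% inhibition of growth. TGI: total growth inhibition.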

Regarding `CCOC(=O)n1cc(C2=C(c3ccc(OC)c(OC)c3)COC2=O)c2ccccc21`, the GI50 is 0.0536 µM in the assay on U251 CNS; 0.0279 µM in the assay on HL-60(TB) leukemia; 16.1 µM in the assay with UACC-257 melanoma; 0.157 µM in the assay with NCI-H23 lung; 0.0632 µM in the assay on UO-31 renal; 0.0325 µM with K-562 leukemia. The figures for the GI50 with SK-MEL-2 melanoma, in the assay with CAKI-1 renal and in the assay with IGROV1 ovarian were 0.402 µM, 0.0465 µM and 0.0555 µM, respectively. The TGI is greater than 100 µM in the assay with U251 CNS; 0.0851 µM in the assay on HL-60(TB) leukemia; greater than 100 µM in the assay with UACC-257 melanoma; greater than 100 µM in the assay with NCI-H23 lung; greater than 100 µM in the assay with UO-31 renal; greater than 100 µM with K-562 leukemia. Further, the TGI in the assay on SK-MEL-2 melanoma was greater than 100 µM; with CAKI-1 renal, 37.1 µM; in the assay with IGROV1 ovarian, greater than 100 µM.

As for `CCCCCCCCCCCCNC(=S)OC`, the TGI with U251 CNS came to 29.5 µM; in the assay on HL-60(TB) leukemia, 27.9 µM; with UACC-257 melanoma it was 32.5 µM; in the assay on NCI-H23 lung, 34 µM; with UO-31 renal it was 17.8 µM; in the assay on K-562 leukemia, 39.6 µM. Besides, the TGI was 31.1 µM in the assay with SK-MEL-2 melanoma, 28.3 µM in the assay on CAKI-1 renal and 24.3 µM in the assay with IGROV1 ovarian.

On to `Cc1nnc2ccnn2c1C`, for which the GI50 with U251 CNS, in the assay on HL-60(TB) leukemia, in the assay on MDA-MB-435, with UO-31 renal, with K-562 leukemia and with SK-MEL-2 melanoma was greater than 100 µM in each case. Further, the GI50 in the assay with CAKI-1 renal and in the assay on IGROV1 ovarian was greater than 100 µM each time. Also, the TGI with U251 CNS, in the assay with HL-60(TB) leukemia, in the assay with MDA-MB-435, with UO-31 renal, in the assay with K-562 leukemia and in the assay on SK-MEL-2 melanoma was greater than 100 µM each time. The TGI with CAKI-1 renal and with IGROV1 ovarian was greater than 100 µM in each case.

For the molecule `COc1cc2c(cc1O)[C@H](C)C(c1ccc(OC)c(OC)c1)O2` (stereo partly specified), the TGI with U251 CNS worked out at 37.8 µM; in the assay on HL-60(TB) leukemia, 13.7 µM; in the assay on UACC-257 melanoma it was 35.9 µM; in the assay on NCI-H23 lung, 28.1 µM; in the assay with UO-31 renal, 64 µM; in the assay with K-562 leukemia, 17.4 µM. Moreover, the values for the TGI in the assay on SK-MEL-2 melanoma, in the assay on CAKI-1 renal and in the assay on IGROV1 ovarian were 12.8 µM, 15.9 µM and 4.36 µM, respectively.

Consider `N#CCCC[Si]12OCCN(CCO1)CCO2`, for which the TGI in the assay with U251 CNS, in the assay with HL-60(TB) leukemia, in the assay on UACC-257 melanoma, in the assay with NCI-H23 lung, in the assay with UO-31 renal and in the assay on K-562 leukemia was greater than 100 µM in each case. Further, the TGI in the assay on SK-MEL-2 melanoma, with CAKI-1 renal and in the assay with IGROV1 ovarian was greater than 100 µM throughout.

For the molecule `O=S1C(=c2ccc(=C3Sc4ccccc4S3)cc2)Sc2ccccc21` (stereo unspecified), the TGI in the assay on U251 CNS was 28.2 µM; in the assay on HL-60(TB) leukemia, greater than 100 µM; with UACC-257 melanoma, greater than 100 µM; in the assay with NCI-H23 lung, 30.2 µM; in the assay with UO-31 renal, 35.2 µM; with K-562 leukemia it was greater than 100 µM. Besides, the TGI was 50.6 µM in the assay on SK-MEL-2 melanoma, greater than 91.1 µM with CAKI-1 renal and greater than 95.5 µM in the assay on IGROV1 ovarian.

Turning to `S=P1(Oc2ccccc2)NNP2(=NP(N3CC3)(N3CC3)=NP(N3CC3)(N3CC3)=N2)NN1` (stereo unspecified), the TGI in the assay with U251 CNS, in the assay with HL-60(TB) leukemia, with UACC-257 melanoma, with NCI-H23 lung, with UO-31 renal and in the assay on K-562 leukemia was greater than 100 µM in each case. Besides, the TGI in the assay on SK-MEL-2 melanoma, in the assay on CAKI-1 renal and in the assay with IGROV1 ovarian was greater than 100 µM each time.

Regarding `CCOC(=O)/C(=C/c1ccc(OC)cc1)N(CC)CC`, the TGI in the assay with U251 CNS, in the assay with HL-60(TB) leukemia, with UACC-257 melanoma, in the assay with NCI-H23 lung, with UO-31 renal and with K-562 leukemia was greater than 100 µM in each case. In addition, the TGI with SK-MEL-2 melanoma, with CAKI-1 renal and in the assay on IGROV1 ovarian was greater than 100 µM in each case.

As for `O=C(/C=C/c1c(O)ccc2ccccc12)c1ccc([N+](=O)[O-])cc1`, the TGI was greater than 100 µM in the assay on U251 CNS; 48.6 µM with HL-60(TB) leukemia; 74 µM with UACC-257 melanoma; 60.3 µM in the assay on NCI-H23 lung; greater than 61.7 µM in the assay with UO-31 renal; greater than 100 µM in the assay with K-562 leukemia. Further, the TGI is greater than 100 µM in the assay on SK-MEL-2 melanoma, greater than 74 µM in the assay on CAKI-1 renal and greater than 100 µM in the assay with IGROV1 ovarian.

As to `CCOC(=O)C(=[N+]=[N-])C(=O)CN1C(=O)c2ccccc2C1=O`, the TGI with U251 CNS, in the assay with UACC-257 melanoma, in the assay with MDA-MB-435, in the assay on NCI-H23 lung, with UO-31 renal and in the assay with K-562 leukemia was greater than 100 µM throughout. The TGI in the assay with SK-MEL-2 melanoma, in the assay on CAKI-1 renal and in the assay with IGROV1 ovarian was greater than 100 µM in each case.

As to `O=C1C(C(Nc2ccccc2)c2ccccc2)=C([O-])c2ccccc21.O=C1C(C(Nc2ccccc2)c2ccccc2)=C([O-])c2ccccc21.[Cu+2]` (stereo unspecified), the GI50 was 22.5 µM with U251 CNS; 19.6 µM in the assay with HL-60(TB) leukemia; greater than 100 µM with UACC-257 melanoma; 24.9 µM with NCI-H23 lung; 32.2 µM in the assay with UO-31 renal; 28.6 µM in the assay with K-562 leukemia. Also, the GI50 in the assay with CAKI-1 renal was greater than 100 µM; in the assay with IGROV1 ovarian, 54.5 µM. The TGI in the assay with U251 CNS is 65.4 µM; in the assay on HL-60(TB) leukemia, greater than 100 µM; in the assay with UACC-257 melanoma it was greater than 100 µM; with NCI-H23 lung it was greater than 100 µM; in the assay on UO-31 renal, greater than 100 µM; in the assay on K-562 leukemia it was greater than 100 µM. The TGI with CAKI-1 renal and in the assay with IGROV1 ovarian was greater than 100 µM throughout.

In the case of `CN(C)c1ccc(/C=N/NC(=S)Nc2ccccc2)cc1`, the TGI in the assay on U251 CNS, in the assay with UACC-257 melanoma, in the assay with MDA-MB-435, with NCI-H23 lung, in the assay with UO-31 renal and in the assay on K-562 leukemia was greater than 100 µM throughout. Moreover, the TGI in the assay with SK-MEL-2 melanoma, in the assay with CAKI-1 renal and in the assay on IGROV1 ovarian was greater than 100 µM throughout.
